Assay results published in PubChem BioAssay (NCI).
Values joined by “and” are separate entries in the source; they are usually repeats but may differ in a detail not shown here. Identical values can stand only once.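 In this assay, cells in 96-well plates receive the compound at five concentrations for 48 hours. Endpoints are linearly interpolated between the surrounding concentrations. GI50 is the concentration that inhibits growth by half. Definition used: TGI = concentration required for complete inhibition of growth.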

Columns and labels:
Assay in all cases: growth of human tumour cells (NCI), 48 h
[1] = tested on: BT-549 breast
[2] = tested on: HCT-15 colon
[3] = tested on: HOP-62 NSCLC
[4] = tested on: HS 578T breast
[5] = tested on: M14 melanoma
[6] = tested on: MCF7 breast
[7] = tested on: NCI/ADR-RES ovarian
[8] = tested on: OVCAR-5 ovarian
[9] = tested on: SW-620 colon
[10] = tested on: TK-10 renal
[11] = tested on: 786-0 renal
[12] = tested on: HOP-92 NSCLC

| SMILES | TGI [1] [µM] | TGI [2] | TGI [3] [µM] | TGI [4] [µM] | TGI [5] [µM] | TGI [6] [µM] | TGI [7] | TGI [8] [µM] | TGI [9] [µM] | TGI [10] [µM] | TGI [11] [µM] | TGI [12] | GI50 [2] [µM] | GI50 [7] [µM] | GI50 [10] [µM] | GI50 [3] [µM] | GI50 [4] [µM] | GI50 [6] [µM] | GI50 [9] [µM] |
| --- | --- | --- | --- | --- | --- | --- | --- | --- | --- | --- | --- | --- | --- | --- | --- | --- | --- | --- | --- |
| COc1cc2cc(C(=O)N3CC(CCl)c4ccc(NO)cc43)[nH]c2c(OC)c1OC (stereo not given) | 1.05 | > 100 µM | 0.749 | 0.954 | 0.768 | > 32.8 | 0.48 µM | > 37.2 | > 100 | > 100 | – | – | – | – | – | – | – | – | – |
| CC(C)CC(N)C(=O)NC(CNC(CCC(N)=O)C(=O)NC(CC(C)C)C(=O)NC(CC(C)C)C(=O)O)Cc1ccc2ccccc2c1 (stereo not given) | > 10 | > 10 µM | > 10 | > 10 | > 10 | > 10 | > 10 µM | > 10 | > 10 | > 10 | > 10 | > 10 µM | – | – | – | – | – | – | – |
| CC1CC(C)(O)C2C3(C)CCCC2(COC3=O)C12CCC1(CCOC1=O)O2 (stereo not given) | – | > 250 µM | > 250 | – | – | > 250 | > 250 µM | > 250 | > 250 | – | – | > 250 µM | – | – | – | – | – | – | – |
| O=C(O)C1=C(CO)Oc2cc3c(cc2C1c1ccc2c(c1)OCO2)OCO3 (stereo not given) | – | > 100 µM | > 100 | – | > 100 | – | – | – | > 100 | > 100 | – | > 100 µM | – | – | – | – | – | – | – |
| Nc1[nH]c(=O)nc2c1cnn2COCCO | – | > 100 µM | – | – | > 100 | – | – | 73.6 | > 100 | 99.9 | – | > 100 µM | – | – | – | – | – | – | – |
| O=P1(Oc2ccc(Cl)cc2Cl)Oc2cc3ccccc3cc2O1 | – | > 100 µM | > 100 | – | – | > 74.4 | > 100 µM | > 100 | > 100 | – | – | > 100 µM | – | – | – | – | – | – | – |
| CN(C)CCC(=O)[C@@]1(O)CC[C@H]2[C@@H]3CC=C4C[C@@H](O)CC[C@]4(C)[C@H]3CC[C@@]21C | 32.8 | 45.1 µM | 30.6 | 51.1 | 34.2 | 16.8 | 72.1 µM | > 100 | 50.2 | 6.96 | 13.6 | 39.7 µM | – | – | – | – | – | – | – |
| Nc1c(S(=O)(=O)O)cc(S(=O)(=O)O)c2ccc(N=Nc3ccccc3)c(O)c12 | > 100 | > 100 µM | > 100 | > 100 | > 100 | > 100 | > 100 µM | > 100 | > 100 | > 100 | > 100 | > 100 µM | – | – | – | – | – | – | – |
| CCn1c2ccccc2c2ccc(C3C4C(=O)N(c5cccc6ccccc56)C(=O)C4ON3C(C(N)=O)c3ccccc3)cc21 (stereo not given) | > 25 | > 25 µM | > 25 | > 25 | > 25 | > 25 | > 25 µM | > 25 | > 25 | 21.8 | > 25 | > 25 µM | – | – | – | – | – | – | – |
| COC(=O)[C@]12CC[C@H]3CN(S(=O)(=O)c4ccc(C)cc4)[C@H]([C@H]31)[C@H](c1ccco1)N2S(=O)(=O)c1ccc(C)cc1 | 91.6 | > 100 µM | > 100 | > 100 | 92.4 | > 100 | > 100 µM | > 100 | > 100 | > 100 | > 100 | 62.8 µM | – | – | – | – | – | – | – |
| Cc1nn(CNc2ccc(F)c(Cl)c2)c(=S)n1/N=C/c1ccc(-c2ccc(Cl)cc2Cl)o1 | – | 41.6 µM | 35.9 | 52.9 | 36.9 | 37.3 | 44.5 µM | 41.2 | 29.2 | 28.9 | 29 | – | – | – | – | – | – | – | – |
| CC(C)N(CC(=O)O)CC(=O)O | > 100 | > 100 µM | > 100 | > 100 | > 100 | > 100 | > 100 µM | > 100 | > 100 | > 100 | > 100 | > 100 µM | – | – | – | – | – | – | – |
| COc1ccc2c(O)c1-c1c(OC)ccc(c1O)SSc1ccc(OC)c(c1O)-c1c(OC)ccc(c1O)SS2 | – | – | > 100 | > 100 | > 100 | > 100 | – | > 100 | > 100 | > 100 | > 100 | 90.1 µM | – | – | – | – | – | – | – |
| CCCCCCCCCCCCCCCCCCN(C)CC(COC)OP(=O)([O-])OCC[N+](C)(C)C (stereo not given) | 6.75 | 13.6 µM | 5.17 | 17.8 | 15 | 14.8 | 33.3 µM | 5.95 | 15.6 | 3.06 | 2.57 | 3.33 µM | – | – | – | – | – | – | – |
| [O-]c1c2c(nn1-c1ccc(F)cc1)c1ccccc1c[n+]2Cc1ccccc1 | – | 39.1 µM | 32.1 | – | 15.3 | – | – | 41.3 | 48.7 | 83 | – | 57.9 µM | – | – | – | – | – | – | – |
| CC(C)=CCC/C(C)=C/Cc1c2c(c3oc(-c4ccc(O)c(O)c4)c(O)c(=O)c3c1O)C=CC(C)(C)O2 | 15 | 8.39 µM | 10.7 | 18.7 | 9.42 | 11.4 | 11.7 µM | 15.1 | – | 11.2 | 7.92 | – | – | – | – | – | – | – | – |
| Cc1ccc(C(=O)NC2C(=O)NC(C(C)C)C(=O)N3CCCC3C(=O)N(C)CC(=O)N(C)C(C(C)C)C(=O)OC2C)c2c1Oc1c(c(C(=O)NC3C(=O)NC(C(C)C)C(=O)N4CCCC4C(=O)N(C)CC(=O)N(C)C(C(C)C)C(=O)OC3C)c3nc(-c4ccccc4)c(=O)oc3c1C)N2 (stereo not given) | 0.0224 | 0.646 µM and 0.318 µM | 0.00223 | 0.00548 | – | 0.0116 | 2.59 µM and 2.37 µM | 0.00918 | 12 | 11.4 | – | 0.156 µM and 0.0741 µM | 0.0159 | 0.0856 | 0.013 | – | – | – | – |
| O=C(c1ccccc1)c1ccc(N2C(=O)/C(=C/c3ccccc3S)N=C2c2ccccc2)c(N2C(=O)/C(=C/c3ccccc3S)N=C2c2ccccc2)c1 | > 100 | > 100 µM | > 100 | > 100 | > 100 | > 100 | > 100 µM | > 100 | > 100 | > 100 | > 100 | > 100 µM | – | – | – | – | – | – | – |
| Cc1csc2nc(-c3cc([N+](=O)[O-])c(Cl)cc3Cl)c(/C=N/N=C(N)N)n12 | 29.5 | 45.2 µM | 35 | 32.7 | 34.3 | 37.5 | 32 µM | 49.4 | 32.5 | 32.4 | 49.3 | 32.1 µM | – | – | – | – | – | – | – |
| CCCCC(CC)C(=O)Oc1ccc(C(=O)c2ccccc2)c(O)c1 (stereo not given) | > 100 | > 100 µM | > 100 | 64.9 | > 100 | > 100 | > 100 µM | > 100 | > 100 | > 100 | – | 59.4 µM | – | – | – | – | – | – | – |
| C=C(C)[C@@H]1CC[C@]2(C(=O)O)CC[C@]3(C)[C@H](CC[C@@H]4[C@@]5(C)C/C(=C/c6ccco6)C(=O)C(C)(C)[C@@H]5CC[C@]43C)[C@@H]12 | – | 10.5 µM | 31.3 | > 100 | – | 10.7 | – | – | 6.89 | 46.9 | – | – | 2.59 | – | 3.65 | 2.77 | 6.66 | 2.62 | 2.52 |
| CC(=O)NC1C(OCc2ccccc2)OC(CO)C(O)C1OCC(=O)NC(C(=O)NC(CCC(=O)NCCCCCC(=O)Nc1ccc2c(c1)CN1C(=O)c3ccccc3C1=N2)C(N)=O)C(C)C (stereo not given) | 48.1 | > 100 µM | 40.8 | 51 | > 100 | 56.7 | > 100 µM | > 100 | > 100 | 39.6 | 38 | > 100 µM | – | – | – | – | – | – | – |
| CCCCCCC(=O)OC[n+]1ccc(-c2c(COC(=O)NC(C)C)c(COC(=O)NC(C)C)c3n2CCC3)cc1 | > 100 | > 100 µM | > 100 | > 100 | > 100 | > 100 | > 100 µM | > 100 | > 100 | > 100 | > 100 | > 100 µM | – | – | – | – | – | – | – |
